Results taken from ChEMBL document CHEMBL1208688, “Synthesis and biological evaluation of novel benzodioxinocarbazoles (BDCZs) as potential anticancer agents” (Bioorg Med Chem Lett, 2010).
Calls of active or inactive are those of the source. The calls are words filed in the database; no cut-off is given here.

Key:
[1] = biological target: T1, DNA topoisomerase 1 (Homo sapiens) (UniProt P11387); test: Inhibition of topoisomerase 1
T1 sequence (whole entry): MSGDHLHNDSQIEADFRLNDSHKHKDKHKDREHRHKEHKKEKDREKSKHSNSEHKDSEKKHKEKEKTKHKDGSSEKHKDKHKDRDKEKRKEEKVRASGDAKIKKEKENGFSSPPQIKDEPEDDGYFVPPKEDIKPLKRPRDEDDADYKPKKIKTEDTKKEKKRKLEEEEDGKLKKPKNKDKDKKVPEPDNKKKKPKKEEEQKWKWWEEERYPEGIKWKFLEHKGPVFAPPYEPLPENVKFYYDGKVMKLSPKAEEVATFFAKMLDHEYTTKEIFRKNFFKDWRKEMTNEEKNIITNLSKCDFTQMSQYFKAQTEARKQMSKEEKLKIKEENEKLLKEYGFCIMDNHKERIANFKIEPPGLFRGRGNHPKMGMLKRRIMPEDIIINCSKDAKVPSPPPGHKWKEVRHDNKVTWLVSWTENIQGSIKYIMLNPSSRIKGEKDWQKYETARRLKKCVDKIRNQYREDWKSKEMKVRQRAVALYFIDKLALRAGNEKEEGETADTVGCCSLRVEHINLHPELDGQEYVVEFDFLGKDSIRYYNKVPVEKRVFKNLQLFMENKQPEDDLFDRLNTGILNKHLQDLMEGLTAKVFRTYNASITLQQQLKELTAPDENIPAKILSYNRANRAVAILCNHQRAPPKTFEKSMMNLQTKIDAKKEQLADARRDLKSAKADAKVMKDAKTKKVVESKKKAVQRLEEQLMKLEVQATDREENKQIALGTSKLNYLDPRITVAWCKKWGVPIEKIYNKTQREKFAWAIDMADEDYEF

[2] = biological target: DNA topoisomerase 2-alpha (Homo sapiens) (UniProt P11388); test: Inhibition of topoisomerase 2
DNA topoisomerase 2-alpha (Homo sapiens), sequence (P11388 whole entry): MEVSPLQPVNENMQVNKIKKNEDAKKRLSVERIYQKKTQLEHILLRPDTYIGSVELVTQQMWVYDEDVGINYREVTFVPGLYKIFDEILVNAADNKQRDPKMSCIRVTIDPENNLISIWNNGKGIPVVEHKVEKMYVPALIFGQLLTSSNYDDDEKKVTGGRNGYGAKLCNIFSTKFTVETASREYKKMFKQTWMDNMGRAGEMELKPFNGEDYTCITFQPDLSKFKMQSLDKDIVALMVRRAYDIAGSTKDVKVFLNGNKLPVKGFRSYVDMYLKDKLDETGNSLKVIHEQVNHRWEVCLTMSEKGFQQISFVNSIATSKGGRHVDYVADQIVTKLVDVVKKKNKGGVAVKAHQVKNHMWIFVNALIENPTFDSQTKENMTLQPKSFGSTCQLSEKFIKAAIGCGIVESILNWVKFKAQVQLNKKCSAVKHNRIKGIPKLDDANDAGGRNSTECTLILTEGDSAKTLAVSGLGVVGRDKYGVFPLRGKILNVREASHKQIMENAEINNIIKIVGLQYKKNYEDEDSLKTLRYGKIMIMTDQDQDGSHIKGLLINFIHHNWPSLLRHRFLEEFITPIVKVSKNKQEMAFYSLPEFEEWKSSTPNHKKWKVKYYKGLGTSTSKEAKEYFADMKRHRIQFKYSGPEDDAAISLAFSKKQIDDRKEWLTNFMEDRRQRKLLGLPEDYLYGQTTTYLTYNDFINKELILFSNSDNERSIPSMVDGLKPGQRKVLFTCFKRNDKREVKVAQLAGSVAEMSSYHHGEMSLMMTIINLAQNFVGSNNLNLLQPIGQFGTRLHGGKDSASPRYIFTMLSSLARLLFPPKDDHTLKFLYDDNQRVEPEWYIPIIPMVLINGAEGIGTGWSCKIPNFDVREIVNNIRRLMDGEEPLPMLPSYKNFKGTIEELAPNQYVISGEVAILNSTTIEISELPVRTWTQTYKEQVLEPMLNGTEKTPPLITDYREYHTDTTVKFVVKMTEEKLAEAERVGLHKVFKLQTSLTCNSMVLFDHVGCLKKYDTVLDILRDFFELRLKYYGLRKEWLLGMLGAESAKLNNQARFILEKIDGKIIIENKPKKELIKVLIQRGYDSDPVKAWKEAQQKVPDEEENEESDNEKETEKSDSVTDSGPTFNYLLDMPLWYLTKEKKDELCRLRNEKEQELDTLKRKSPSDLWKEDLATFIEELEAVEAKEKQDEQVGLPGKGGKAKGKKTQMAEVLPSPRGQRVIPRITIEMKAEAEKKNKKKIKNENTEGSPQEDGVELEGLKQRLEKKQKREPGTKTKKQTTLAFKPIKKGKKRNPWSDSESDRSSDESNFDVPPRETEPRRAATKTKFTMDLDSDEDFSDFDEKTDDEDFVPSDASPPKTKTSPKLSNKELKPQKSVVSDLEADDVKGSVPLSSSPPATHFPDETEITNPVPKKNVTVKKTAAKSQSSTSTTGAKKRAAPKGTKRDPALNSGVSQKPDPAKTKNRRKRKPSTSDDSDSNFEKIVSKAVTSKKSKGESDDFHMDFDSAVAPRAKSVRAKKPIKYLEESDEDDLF

inhibition [1]: inactive
inhibition [2]: inactive
SMILES: CN(C)CCn1c(=O)c2c3oc4ccccc4oc3c3[nH]c4ccc(O)cc4c3c2c1=O
